Test results published in patent publication US20250017928A1, “OPHTHALMIC PHARMACEUTICAL COMPOSITIONS CONTAINING A NITRIC OXIDE-RELEASING PHOSPHODIESTERASE 5 INHIBITOR AND METHOD FOR THE PREPARATION THEREOF” (Nicox SA, priority 2021, published 2025).

Assay: Aqueous solubility of Compound (I) and its salts
Type: physicochemical
Conditions: aqueous medium; free base
Excerpt: In an effort to enhance the solubility of Compound (I) in aqueous vehicle, ‘salt forms’ of Compound (I) were explored.

COc1ccc(CNc2nc(N3CCC[C@H]3COC(=O)CCCCCO[N+](=O)[O-])ncc2C(=O)NCc2ncccn2)cc1Cl [Compound (I), [(2S)-1-(4-{[(3-chloro-4-methoxyphenyl)methyl]amino}-5-{[(pyrimidin-2-yl)methyl]carbamoyl}pyrimidin-2-yl)pyrrolidin-2-yl]methyl 6-(nitrooxy)hexanoate]
solubility: 13 µg/mL
